# Experimental data from article PMC9322451 (Clinical Pharmacology in Drug Development, 2022).
# Read-outs that look alike come from different tables or passages of the source.
# Assay: Phase 1 part A: PK after single and multiple once-daily oral doses
# Assay type: in vivo, human
# Conditions: for Dose-normalized AUClast / Dose-normalized AUCτ / Dose-normalized AUC∞ / Dose-normalized Cmax: geometric least squares mean; for concentration at 30 day / Tmax / half-life / AUC / AUC(0-inf) / AUC(0-t) / Cmax: human, plasma
# Procedure: The study was conducted sequentially in 2 parts. […] Eligible participants were admitted to the clinical unit for single‐dose evaluation from days −2 to 2 and from days 29 to 31 for steady‐state PK and safety evaluation. Participants self‐administered daily doses after an overnight fast of at least 10 hours on days 4 to 30, with outpatient visits on days 3, 4, 7, 14, 21, 32, 33, and 61 (Figure S1).
# For part A, blood samples for PK assessments were collected following administration on days 1 and 30 at 0 (predose), 0.5, 0.75, 1, 1.5, 2, 3, 4, 8, 12, 24, 48, and 72 hours after dosing. In addition, predose PK samples were collected on days 4, 7, 14, and 21. PK parameters following single and multiple once‐daily dosing were evaluated using noncompartmental analysis, including the AUC over a dosing interval (AUCτ), AUC from time 0 to the last time with quantifiable concentration (AUClast), AUC from time 0 to infinite time (AUC∞), maximum plasma concentration (Cmax), minimum plasma concentration, time to maximum plasma concentration (tmax), terminal elimination half‐life (t1/2), apparent total drug clearance following oral administration (CL/F), and predose concentration.
# All statistical analyses were performed using SAS version 9.3 or higher (SAS Institute Inc., Cary, North Carolina). Analysis of PK data was performed using WinNonlin Professional Software version 8.0 or higher (Certara, LP, Princeton, New Jersey). […] Categorical data were summarized by race and treatment group in terms of number of participants with data at relevant time points, frequency counts, and percentages. PK concentrations below the limit of quantification (BLQ) at time 0 on days 1 and 30 were considered 0. Postdose BLQ data were considered missing for PK parameter calculation. For mean concentrations and graphic presentation, all BLQ data were imputed as 0.
# [1] = Multiple dosing (Day 30), Japanese n = 23, 3 dose groups pooled
# [2] = Multiple dosing (Day 30), White n = 24, 3 dose groups pooled
# [3] = Single dose (Day 1), Japanese n = 25, 3 dose groups pooled
# [4] = Single dose (Day 1), White n = 24, 3 dose groups pooled
# [5] = po, 10 mg, Day 1, 10 mg, Japanese, mean (CV%)
# [6] = po, 10 mg, Day 1, 10 mg, White, mean (CV%)
# [7] = po, 10 mg, Day 30, 10 mg once daily, Japanese, mean (CV%)
smiles,measurement,setting,value
Cn1c(=O)oc2ccc(-c3ccc(C[C@@H](C#N)NC(=O)[C@@H]4CNCCCO4)cc3)cc21 [Brensocatib],Mean steady‐state CL/F,"10 mg, Japanese",10.1 L/h
same,Mean steady‐state CL/F,"10 mg, White",8.5 L/h
same,Mean steady‐state CL/F,"25 mg, Japanese",6.4 L/h
same,Mean steady‐state CL/F,"25 mg, White",7.0 L/h
same,Mean steady‐state CL/F,"40 mg, White",6.5 L/h
same,Ctrough,"Day 30, 10 mg once daily, Japanese, mean (CV%)",15.64 (48.2) ng/mL
same,Ctrough,"Day 30, 10 mg once daily, White, mean (CV%)",31.65 (52.6) ng/mL
same,Ctrough,"Day 30, 25 mg once daily, Japanese, mean (CV%)",93.05 (72.3) ng/mL
same,Ctrough,"Day 30, 25 mg once daily, White, mean (CV%)",83.24 (48.2) ng/mL
same,Ctrough,"Day 30, 40 mg once daily, Japanese, mean (CV%)",81.86 (101.6) ng/mL
same,Ctrough,"Day 30, 40 mg once daily, White, mean (CV%)",92.95 (90) ng/mL
same,Dose-normalized AUClast,[1],172.9 (ng ‧ h/mL)/mg
same,Dose-normalized AUCτ,[1],107.6 (ng ‧ h/mL)/mg
same,Dose-normalized AUC∞,[1],194.9 (ng ‧ h/mL)/mg
same,Dose-normalized Cmax,[1],8.5 (ng/mL)/mg
same,Dose-normalized AUClast,[2],243.8 (ng ‧ h/mL)/mg
same,Dose-normalized AUCτ,[2],144.8 (ng ‧ h/mL)/mg
same,Dose-normalized AUC∞,[2],285.4 (ng ‧ h/mL)/mg
same,Dose-normalized Cmax,[2],10.6 (ng/mL)/mg
same,Dose-normalized AUClast,[3],94.0 (ng ‧ h/mL)/mg
same,Dose-normalized AUCτ,[3],62.5 (ng ‧ h/mL)/mg
same,Dose-normalized AUC∞,[3],103.9 (ng ‧ h/mL)/mg
same,Dose-normalized Cmax,[3],6.1 (ng/mL)/mg
same,Dose-normalized AUClast,[4],118.8 (ng ‧ h/mL)/mg
same,Dose-normalized AUCτ,[4],75.4 (ng ‧ h/mL)/mg
same,Dose-normalized AUC∞,[4],133.9 (ng ‧ h/mL)/mg
same,Dose-normalized Cmax,[4],6.9 (ng/mL)/mg
same,concentration at 30 day,"oral, 10 mg, Day 30, 10 mg once daily, Japanese, mean (CV%), read-out: Cavg",43.8 ng/mL
same,concentration at 30 day,"oral, 10 mg, Day 30, 10 mg once daily, Japanese, mean (CV%), read-out: Cmin",19.6 ng/mL
same,concentration at 30 day,"oral, 10 mg, Day 30, 10 mg once daily, White, mean (CV%), read-out: Cavg",49.4 ng/mL
same,concentration at 30 day,"oral, 10 mg, Day 30, 10 mg once daily, White, mean (CV%), read-out: Cmin",26.3 ng/mL
same,concentration at 30 day,"oral, 25 mg, Day 30, 25 mg once daily, Japanese, mean (CV%), read-out: Cavg",174 ng/mL
same,concentration at 30 day,"oral, 25 mg, Day 30, 25 mg once daily, Japanese, mean (CV%), read-out: Cmin",98.8 ng/mL
same,concentration at 30 day,"oral, 25 mg, Day 30, 25 mg once daily, White, mean (CV%), read-out: Cavg",161 ng/mL
same,concentration at 30 day,"oral, 25 mg, Day 30, 25 mg once daily, White, mean (CV%), read-out: Cmin",93.9 ng/mL
same,concentration at 30 day,"oral, 40 mg, Day 30, 40 mg once daily, Japanese, mean (CV%), read-out: Cavg",167 ng/mL
same,concentration at 30 day,"oral, 40 mg, Day 30, 40 mg once daily, Japanese, mean (CV%), read-out: Cmin",77.5 ng/mL
same,concentration at 30 day,"oral, 40 mg, Day 30, 40 mg once daily, White, mean (CV%), read-out: Cavg",269 ng/mL
same,concentration at 30 day,"oral, 40 mg, Day 30, 40 mg once daily, White, mean (CV%), read-out: Cmin",149 ng/mL
same,Tmax,"oral, once‐daily administration, steady state, range over groups, read-out: Tmax",1 to 1.8 h
same,half-life,"oral, once‐daily administration, steady state, range over groups, read-out: elimination t1/2",21.7 to 27.6 h
same,half-life,"oral, range over groups (abstract), read-out: Elimination half‐life",22 to 28 h
same,half-life,"oral, single dose, Japanese participants, range over dose groups, read-out: Elimination t1/2",18.4 to 22.4 h
same,half-life,"oral, single dose, White participants, range over dose groups, read-out: Elimination t1/2",21.5 to 24.5 h
same,Tmax,"oral, single‐dose administration, range over groups, read-out: median tmax",1 to 1.5 h
same,half-life,"oral, steady state, Japanese participants, across the 3 dose groups, read-out: mean t1/2",21.7 to 23.1 h
same,half-life,"oral, steady state, White participants, across the 3 dose groups, read-out: mean t1/2",22.9 to 27.6 h
same,AUC,[5],628 ng·h/mL
same,AUC(0-inf),[5],1030 ng·h/mL
same,AUC(0-t),[5],943 ng·h/mL
same,Cmax,[5],64.5 ng/mL
same,half-life,"po, 10 mg, Day 1, 10 mg, Japanese, mean (CV%), read-out: t1/2 (converted)",18.8 h
same,Tmax,"po, 10 mg, Day 1, 10 mg, Japanese, median (range), read-out: Tmax",1.02 h
same,AUC,[6],620 ng·h/mL
same,AUC(0-inf),[6],1140 ng·h/mL
same,AUC(0-t),[6],988 ng·h/mL
same,Cmax,[6],55.9 ng/mL
same,half-life,"po, 10 mg, Day 1, 10 mg, White, mean (CV%), read-out: t1/2 (converted)",25.7 h
same,Tmax,"po, 10 mg, Day 1, 10 mg, White, median (range), read-out: Tmax",1.01 h
same,AUC,[7],1050 ng·h/mL
same,AUC(0-inf),[7],1980 ng·h/mL
same,AUC(0-t),[7],1730 ng·h/mL
